Laboratory results: paper PMC8296573, “Synthesis and Biological Evaluation of Fingolimod Derivatives as Antibacterial Agents” (ACS Omega, 2021)
Values after ≈ are worked out from the molar mass of the structure shown. Where two headings read alike, the source gives them in different places.

Columns and labels:
[1] = test system: S. aureus ATCC 25923; test: Antibacterial activity, post-exposure on preformed 18-h-old biofilms; format: cell-based, Staphylococcus aureus; conditions: for Average inhibition %, biofilms viability / Average inhibition %, planktonic cells viability / inhibition at 25 µM / inhibition at 50 µM / inhibition at 100 µM / inhibition at 200 µM: ± SD; for inhibition at 25 µM / inhibition at 50 µM / inhibition at 100 µM / inhibition at 200 µM: Staphylococcus aureus; for inhibition at 25 µM: ATCC25923, 25 µM; for inhibition at 50 µM: ATCC25923, 50 µM; for inhibition at 100 µM: ATCC25923, 100 µM; for inhibition at 200 µM: ATCC25923, 200 µM
Procedure, shortened: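 Biofilms grown 18 h without compound, medium then replaced and compound added for a further 24 h. Planktonic OD and resazurin (20 μM final) fluorescence (ex 560/em 590 nm) read; washed biofilms stained with 20 μM resazurin 30 min at 37 °C, then ethanol-fixed and crystal violet-stained, absorbance 595 nm.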

[2] = test system: S. aureus ATCC 25923; test: Antibacterial activity, pre-exposure (planktonic cells and biofilm formation); format: cell-based, Staphylococcus aureus; conditions: for MIC / inhibition at 5 µM / inhibition at 10 µM / inhibition at 15 µM / inhibition at 25 µM: Staphylococcus aureus, ATCC25923; for inhibition at 5 µM / inhibition at 10 µM / inhibition at 15 µM / inhibition at 25 µM / Average inhibition %, biofilms viability / Average inhibition %, planktonic cells viability: pre-exposure, ± SD
Procedure, shortened: (§1)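 Pre-exposure format: compounds added with bacteria, 18 h aerobic at 37 °C with shaking. Planktonic growth read by OD and resazurin (20 μM final) fluorescence; biofilms by resazurin viability then crystal violet biomass (A595). Resazurin incubation time/temperature varied by species.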

[3] = test system: P. aeruginosa ATCC 9027; test: Antibacterial activity, pre-exposure; format: cell-based, Pseudomonas aeruginosa; conditions: for Average inhibition %, biofilms viability / Average inhibition %, planktonic cells viability / inhibition at 50 µM / inhibition at 100 µM / inhibition at 150 µM / inhibition at 200 µM: P. aeruginosa ATCC 9027, pre-exposure, ± SD; for MIC / inhibition at 50 µM / inhibition at 100 µM / inhibition at 150 µM / inhibition at 200 µM: Pseudomonas aeruginosa; for inhibition at 50 µM / inhibition at 100 µM / inhibition at 150 µM / inhibition at 200 µM: ATCC9027
Procedure, shortened: as §1

[4] = test system: A. baumannii NCTC 13423; test: Antibacterial activity, pre-exposure; format: cell-based, Acinetobacter baumannii; conditions: for Average inhibition %, biofilms viability / Average inhibition %, planktonic cells viability / inhibition at 10 µM / inhibition at 15 µM / inhibition at 25 µM / inhibition at 50 µM: A. baumannii NCTC 13423, pre-exposure, ± SD; for inhibition at 10 µM / inhibition at 15 µM / inhibition at 25 µM / inhibition at 50 µM / MIC: Acinetobacter baumannii, NCTC13423
Procedure, shortened: as §1

[5] = read-out: Average inhibition %, biofilms biomass
[6] = read-out: Average inhibition %, planktonic cells turbidity
[7] = 10 µM, read-out: Average inhibition %, biofilms biomass
[8] = 10 µM, read-out: Average inhibition %, planktonic cells turbidity
[9] = 15 µM, read-out: Average inhibition %, biofilms biomass
[10] = 15 µM, read-out: Average inhibition %, planktonic cells turbidity
[11] = 25 µM, read-out: Average inhibition %, biofilms biomass
[12] = 25 µM, read-out: Average inhibition %, planktonic cells turbidity
[13] = 50 µM, read-out: Average inhibition %, biofilms biomass
[14] = 50 µM, read-out: Average inhibition %, planktonic cells turbidity

CCCCCCCCc1ccc2ccc(CC(N)(CO)CO)nc2c1 [Compound 82, 2-Amino-2-[(7-octylquinolin-2-yl)methyl]propane-1,3-diol]
Average inhibition %, biofilms viability ([1]; 25 µM): 11.8 ± 8.4% | Average inhibition %, planktonic cells viability ([1]; 25 µM): 0 ± 0% | Average inhibition %, biofilms viability ([1]; 50 µM): 27.8 ± 14.6% | Average inhibition %, planktonic cells viability ([1]; 50 µM): 17.9 ± 25.5% | Inhibition of viability and total biomass of preformed biofilms ([1]; 100 μM): at least 70% | Average inhibition %, biofilms viability ([1]; 100 µM): 81.5 ± 32.8% | Average inhibition %, planktonic cells viability ([1]; 100 µM): 94.5 ± 10% | Average inhibition %, biofilms viability ([1]; 200 µM): 100.2 ± 0.2% | Average inhibition %, planktonic cells viability ([1]; 200 µM): 100.5 ± 0.5% | inhibition at 25 µM [1, 5]: 45.6 ± 7.5% | inhibition at 25 µM [1, 6]: 14.1 ± 11.7% | inhibition at 50 µM [1, 5]: 51.6 ± 10.3% | inhibition at 50 µM [1, 6]: 34.6 ± 28.4% | inhibition at 100 µM [1, 5]: 79.6 ± 17% | inhibition at 100 µM [1, 6]: 79.1 ± 11.5% | inhibition at 200 µM [1, 5]: 79.8 ± 5.7% | inhibition at 200 µM [1, 6]: 77.9 ± 10% | MIC ([2]; lowest concentration with no visible growth (>90% inhibition of turbidity and viability of planktonic cells), 18 h, read-out: MIC S. aureus ATCC 25923): 15 µM (≈ 5.17 µg/mL) | inhibition at 5 µM ([2]; 5 µM, read-out: Average inhibition %, biofilms biomass): 41.7 ± 5.1% | inhibition at 5 µM ([2]; 5 µM, read-out: Average inhibition %, planktonic cells turbidity): 32.8 ± 33.4% | inhibition at 10 µM [2, 7]: 67.2 ± 23.4% | inhibition at 10 µM [2, 8]: 61.5 ± 33.3% | inhibition at 15 µM [2, 9]: 94.4 ± 4.6% | inhibition at 15 µM [2, 10]: 99.9 ± 0.1% | inhibition at 25 µM [2, 11]: 93 ± 5.8% | inhibition at 25 µM [2, 12]: 99.9 ± 0.1% | MIC ([2]; read-out: MIC (S. aureus)): 15 µM (≈ 5.17 µg/mL) | MIC S. aureus ATCC 25923 ([2]; lowest concentration with no visible growth (>90% inhibition of turbidity and viability of planktonic cells), 18 h): same MIC as fingolimod | Average inhibition %, biofilms viability ([2]; 5 µM): 34.4 ± 13.6% | Average inhibition %, planktonic cells viability ([2]; 5 µM): 6.1 ± 10.6% | Average inhibition %, biofilms viability ([2]; 10 µM): 63.5 ± 30.9% | Average inhibition %, planktonic cells viability ([2]; 10 µM): 33 ± 57.1% | Average inhibition %, biofilms viability ([2]; 15 µM): 99.7 ± 0.3% | Average inhibition %, planktonic cells viability ([2]; 15 µM): 99.6 ± 0% | Average inhibition %, biofilms viability ([2]; 25 µM): 99.7 ± 0.4% | Average inhibition %, planktonic cells viability ([2]; 25 µM): 99.7 ± 0% | Average inhibition %, biofilms viability ([3]; 50 µM): 6.4 ± 5.7% | Average inhibition %, planktonic cells viability ([3]; 50 µM): 53.2 ± 3.8% | Average inhibition %, biofilms viability ([3]; 100 µM): 8.3 ± 8.6% | Average inhibition %, planktonic cells viability ([3]; 100 µM): 48.1 ± 18.4% | Average inhibition %, biofilms viability ([3]; 150 µM): 3.5 ± 6% | Average inhibition %, planktonic cells viability ([3]; 150 µM): 57.4 ± 19% | Average inhibition %, biofilms viability ([3]; 200 µM): 31.5 ± 49.1% | Average inhibition %, planktonic cells viability ([3]; 200 µM): 51.6 ± 41.5% | MIC ([3]; ATCC9027, pre-exposure, Inactive = no activity up to 200 μM, > = some inhibition but no MIC reached, read-out: MIC P. aeruginosa ATCC 9027): > 200 µM | MIC ([3]; ATCC9027, supplementary molecular formula strings sheet, read-out: MIC (P. aeruginosa)): > 200 µM | inhibition at 50 µM [3, 13]: 7.6 ± 7% | inhibition at 50 µM [3, 14]: 46.8 ± 2.3% | inhibition at 100 µM ([3]; 100 µM, read-out: Average inhibition %, biofilms biomass): 1.8 ± 2.7% | inhibition at 100 µM ([3]; 100 µM, read-out: Average inhibition %, planktonic cells turbidity): 51.6 ± 8.5% | inhibition at 150 µM ([3]; 150 µM, read-out: Average inhibition %, biofilms biomass): 2.7 ± 4.8% | inhibition at 150 µM ([3]; 150 µM, read-out: Average inhibition %, planktonic cells turbidity): 61.3 ± 19.9% | inhibition at 200 µM ([3]; 200 µM, read-out: Average inhibition %, biofilms biomass): 27.5 ± 24.4% | inhibition at 200 µM ([3]; 200 µM, read-out: Average inhibition %, planktonic cells turbidity): 75.7 ± 14.1% | Average inhibition %, biofilms viability ([4]; 10 µM): 3.9 ± 5.3% | Average inhibition %, planktonic cells viability ([4]; 10 µM): 10.4 ± 9% | Average inhibition %, biofilms viability ([4]; 15 µM): 96.5 ± 6% | Average inhibition %, planktonic cells viability ([4]; 15 µM): 99.5 ± 0.5% | Average inhibition %, biofilms viability ([4]; 25 µM): 100.7 ± 1.1% | Average inhibition %, planktonic cells viability ([4]; 25 µM): 99.7 ± 0% | Average inhibition %, biofilms viability ([4]; 50 µM): 99 ± 1.3% | Average inhibition %, planktonic cells viability ([4]; 50 µM): 99.6 ± 0% | inhibition at 10 µM [4, 7]: 13.3 ± 12.9% | inhibition at 10 µM [4, 8]: 1 ± 1.4% | inhibition at 15 µM [4, 9]: 74.7 ± 11.1% | inhibition at 15 µM [4, 10]: 98.3 ± 2.5% | inhibition at 25 µM [4, 11]: 88.6 ± 7.8% | inhibition at 25 µM [4, 12]: 99.8% | inhibition at 50 µM [4, 13]: 82.6 ± 12.7% | inhibition at 50 µM [4, 14]: 99.4 ± 0.1% | MIC ([4]; pre-exposure, Inactive = no activity up to 50 μM, > = some inhibition but no MIC reached, read-out: MIC A. baumannii NCTC 13423): 15 µM (≈ 5.17 µg/mL) | MIC ([4]; supplementary molecular formula strings sheet, read-out: MIC (A. baumannii)): 15 µM (≈ 5.17 µg/mL)
